From US20160176859A1, “High-Throughput Assay for Identifying Small Molecules that Modulate AMP-activated Protein Kinase (AMPK)” (North Carolina Central University, priority 2013, published 2016)
pIC50, pKd: −log10 of the molar value. “Also recorded” adds a separate entry of the source. Where two headings read alike, the source gives them in different places.

Key:
full-length His-AMPK = molecular target: T1, full-length His-AMPK (Rattus norvegicus, UniProt P54645+P80385); assay: Isothermal titration calorimetry; assay type: binding; settings: both sites; 5 mM phosphate buffer (pH 7.4), room temperature; n=1; read-out: calculated dissociation constants
T1 construct: Tricistronic vectors encoding full-length AMPK (rat His-α1, β1, γ1); made in house; host or cells: Rosetta cells (E. coli), tricistronic vector, gift of Dr. Uwe Schlattner
T1 sequence (P54645 with tags, fused parts or gaps limits assumed): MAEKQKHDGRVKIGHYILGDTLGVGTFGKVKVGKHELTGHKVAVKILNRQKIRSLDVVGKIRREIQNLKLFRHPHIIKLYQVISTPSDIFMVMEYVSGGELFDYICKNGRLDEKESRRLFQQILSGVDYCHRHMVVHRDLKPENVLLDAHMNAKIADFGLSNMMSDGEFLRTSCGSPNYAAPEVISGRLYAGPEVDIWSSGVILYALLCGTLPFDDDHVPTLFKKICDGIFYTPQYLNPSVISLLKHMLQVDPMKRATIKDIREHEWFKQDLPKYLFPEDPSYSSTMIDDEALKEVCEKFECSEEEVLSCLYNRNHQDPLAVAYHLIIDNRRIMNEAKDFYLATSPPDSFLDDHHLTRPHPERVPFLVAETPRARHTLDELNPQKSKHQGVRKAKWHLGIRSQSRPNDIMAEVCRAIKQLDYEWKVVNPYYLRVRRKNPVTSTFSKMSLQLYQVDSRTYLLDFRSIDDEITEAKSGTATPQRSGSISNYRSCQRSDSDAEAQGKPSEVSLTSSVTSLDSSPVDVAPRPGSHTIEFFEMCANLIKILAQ
T1 sequence (P80386 whole entry partner): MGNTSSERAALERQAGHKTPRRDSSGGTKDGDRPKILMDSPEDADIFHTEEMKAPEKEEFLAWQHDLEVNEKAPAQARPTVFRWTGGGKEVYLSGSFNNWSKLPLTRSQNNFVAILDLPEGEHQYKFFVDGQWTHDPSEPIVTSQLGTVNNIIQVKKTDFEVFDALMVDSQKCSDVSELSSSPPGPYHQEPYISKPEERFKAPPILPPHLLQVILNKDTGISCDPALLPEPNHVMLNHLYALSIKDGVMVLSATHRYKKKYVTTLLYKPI
T1 sequence (P80385 whole entry): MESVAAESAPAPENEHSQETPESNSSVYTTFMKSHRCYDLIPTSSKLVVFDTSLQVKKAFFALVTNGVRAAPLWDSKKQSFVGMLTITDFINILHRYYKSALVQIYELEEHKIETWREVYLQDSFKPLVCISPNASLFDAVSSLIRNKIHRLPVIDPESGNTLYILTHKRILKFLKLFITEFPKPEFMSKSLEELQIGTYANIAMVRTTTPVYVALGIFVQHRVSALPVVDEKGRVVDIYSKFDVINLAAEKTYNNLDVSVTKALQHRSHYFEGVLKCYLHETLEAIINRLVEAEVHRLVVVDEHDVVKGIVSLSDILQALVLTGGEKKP
Procedure: ITC. A MicroCal Auto-iTC200 system (GE Healthcare, Pittsburgh, Pa.) was used to study binding interactions between ADP and full-length His-AMPK at room temperature in the presence of 5 mM phosphate buffer (pH 7.4). To decrease the ionic strength of the buffer, full-length AMPK frozen in 50 mM phosphate buffer was thawed, diluted in 5 mM phosphate buffer (pH 7.4) and then concentrated via centrifugal filtration. At the start of the ITC experiment, the concentrations of His-AMPK (in the sample cell) and ADP (in the syringe) were 70 μM and 1.4 mM, respectively.

[1] = molecular target: T2, AMPK regulatory fragment (rat His-α1, 396-548; human β2, 187-272; rat γ1) (Rattus norvegicus, UniProt P80385); assay: MANT-ADP fluorescence displacement (binding) assay, AMPK regulatory fragment; settings: MANT-ADP with no protein = 100% inhibition, read-out: IC50, inhibition of the increase in MANT-ADP fluorescence
T2 construct: rat His-α1, 396-548; human β2, 187-272; rat γ1; made in house; host or cells: Rosetta cells (E. coli), tricistronic vector, gift of Dr. Steve Gamblin
T2 sequence (P54645 407-559 partner limits assumed): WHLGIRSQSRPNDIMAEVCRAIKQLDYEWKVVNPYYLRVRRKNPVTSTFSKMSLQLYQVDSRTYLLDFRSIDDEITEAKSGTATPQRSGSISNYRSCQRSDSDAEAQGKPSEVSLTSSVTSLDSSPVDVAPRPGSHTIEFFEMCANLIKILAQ
T2 sequence (O43741 187-272 partner limits assumed): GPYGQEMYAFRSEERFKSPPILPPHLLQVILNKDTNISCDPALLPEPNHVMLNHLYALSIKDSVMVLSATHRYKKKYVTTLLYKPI
T2 sequence (P80385 whole entry, the tested form may be a part): as the sequence (P80385 whole entry) above
Procedure: (§1) Except where otherwise noted, assays were performed with the following conditions: 0.5 μM full-length AMPK (130 kDa) or 0.5 μM regulatory fragment (66.7 kDa), 0.1 μM MANT-ADP, 10 mM Tris-HCl (pH 8), 0.45% DMSO (vehicle and negative control), and 5 μM ADP (positive control). Automated assays were assembled in two steps. First, a NanoQuot (BioTek) was used to dispense 11 μL of master mix (protein, MANT-ADP, and Tris-HCl) per well in black, low volume 384-well plates (Corning-3676). Next, a Biomek NX workstation (Beckman-Coulter, Brea, Calif.) equipped with pintools (VP Scientific, San Diego Calif.) was used to transfer 50 nL of controls (columns 1, 2, 23, and 24) and small molecules (4.5 μM final). Controls and library molecules were transferred from Axygen 384-well rigid PCR plates (Cat no. 321-67-051) at 221× concentration for single-concentration screening. Plates were shaken for 10 minutes prior to reading.
(§2) Fluorescence emission spectra of MANT-ADP were collected using a PerkinElmer EnSpire plate reader with an excitation wavelength of 360 nm. Background fluorescence from protein was subtracted from the raw data prior to plotting MANT-ADP's fluorescence in the presence of protein. Fluorescence detection for assay development and screening was performed on either a BMG Pherastar Plus (360/10 excitation and 460/10 emission filters) or a PerkinElmer EnVision (355/40 excitation and 460/25 emission filters), depending on equipment availability. Relative fluorescence units (RFUs) were recorded at room temperature.
(§3) ScreenAble (ScreenAble Solutions, Chapel Hill, N.C.) high-throughput screening software was utilized for merging screening data and chemical structure, for statistical design of experiments, and hit selection. GraphPad Prism was used for non-linear regression analysis of dose response data.
(§4) Binding assays. Except where otherwise noted, assay assembly and data analysis were completed according to published methods. Binding assays were manually assembled, with the exception of the similarity screen. Automated assembly of the similarity screen was completed according to published methods. Analogs were cherry-picked from a 10 mM Asinex small molecule library and a 0.5 mM kinase focused library, which has been described previously (4). Molecules were screened at a final concentration of 45 and 2.3 μM, respectively.

[2] = molecular target: T3, full-length AMPK (rat His-α1, β1, γ1) (Rattus norvegicus, UniProt P54645+P80385); assay: MANT-ADP fluorescence displacement (binding) assay, full-length AMPK; settings: for displacement of MANT-ADP: full-length AMPK compared with regulatory fragment: compared in parallel; for pIC50: full-length AMPK
T3 construct: Tricistronic vectors encoding full-length AMPK (rat His-α1, β1, γ1); made in house; host or cells: Rosetta cells (E. coli), tricistronic vector, gift of Dr. Uwe Schlattner
T3 sequence (P54645 with tags, fused parts or gaps limits assumed): as the sequence (P54645 with tags, fused parts or gaps limits assumed) above
T3 sequence (P80386 whole entry partner, the tested form may be a part): as the sequence (P80386 whole entry partner) above
T3 sequence (P80385 whole entry, the tested form may be a part): as the sequence (P80385 whole entry) above
Procedure: as §1, §2, §3, §4

[3] = test system: p-AMPK levels in HEK cells; assay: Cell-intact assay, p-AMPK levels in HEK cells; assay type: cell-based, human; settings: serum starvation followed by 10% serum; 1 hour
Procedure: (§5) Cell-intact assays. HEK cells were grown in DMEM with 10% FBS and 1% penicillin/streptomycin at 37° C. A subset of plates was serum-starved for 5 hours on the day of the experiment. After 5 hours of serum-starvation, cells were treated with either controls (0.2% DMSO, A-769662, or Compound C) or small molecules in the absence of serum for an additional hour prior to lysis. Another subset of plates was serum-starved for 6 hours and then treated with either controls or small molecules for 1 hour in the presence of 10% FBS. A time course of both AMPK and ACC phosphorylation in HEK cells during serum starvation has already been published (Pirkmajer S, Chibalin A V. Serum starvation: caveat emptor. American journal of physiology Cell physiology. 2011 August; 301(2):C272-9. PubMed PMID: 2161361).
After incubating in the presence of drugs for one hour, cells were washed three times with ice-cold PBS and lysed according to published methods (Kazgan N, Williams T, Forsberg L J, Brenman J E. Identification of a nuclear export signal in the catalytic subunit of AMP-activated protein kinase. Molecular biology of the cell. 2010 Oct. 1; 21(19):3433-42. PubMed PMID: 20685962. Pubmed Central PMCID: 2947478). […] The concentration of protein in diluted clarified supernatant was calculated using a DC protein assay kit (BioRad) prior to western analyses. […]

[4] = molecular target: T4, p-AMPK in the presence of PP2C (Rattus norvegicus, UniProt P54645+P80385); assay: Phosphatase assay: protection of p-AMPK from dephosphorylation by PP2C; assay type: biochemical; settings: p-AMPK/total AMPK ratio normalized to no-PP2C control
T4 construct: Full-length AMPK intended for use in phosphatase and kinase assays was purified, mixed with GST-CaMKKβ; made in house; host or cells: Rosetta cells (E. coli); phosphorylated in vitro with GST-CaMKKβ, which was then removed
T4 sequence (P54645 with tags, fused parts or gaps limits assumed): as the sequence (P54645 with tags, fused parts or gaps limits assumed) above
T4 sequence (P80386 whole entry partner): as the sequence (P80386 whole entry partner) above
T4 sequence (P80385 whole entry): as the sequence (P80385 whole entry) above
Procedure: Phosphatase assays. Assay conditions were adapted from published methods (18). In short, the final assay buffer was compromised of 50 mM Tris (pH 7.5), […], 0.01% Triton X-100, 1 mM DTT, and 0.45% DMSO (vehicle). Because some analogs had poor solubility at high concentrations, all analogs and controls were diluted in assay buffer and centrifuged (1 min, 5000 rpm, 4° C.) to remove insoluble matter. PP2C and p-AMPK were added to the supernatant at final concentrations of 2 and 3 ng/μL, respectively. Phosphatase reactions were allowed to proceed for 30 minutes at 37° C. Reactions were stopped by the addition of loading buffer and 48 mM DTT followed promptly by freezing at −20° C.
Western analyses. Protein samples were boiled for 15 minutes in loading buffer and DTT prior to SDS-PAGE. Blots for protein-based assays were sequentially incubated with the following: 5% BSA in 1× TBS (1 hr, 22° C.), 1:1000 rabbit anti-human p-AMPK-α antibody or p-ACC antibody (2 hr, 22° C.), and 1:10,000 donkey anti-rabbit secondary antibody (1 hr, 22° C.). Blots for phosphatase assays were probed a second time using 1:100 mouse anti-human total AMPK antibody (overnight, 4° C.; from UNC Antibody Core Facility) followed by 1:10,000 donkey anti-mouse secondary antibody (1 hr, 22° C.). […]

purified p-AMPK = molecular target: T5, purified p-AMPK (Rattus norvegicus, UniProt P54645+P80385); assay: Kinase assay with purified p-AMPK and GST-ACC peptide; assay type: biochemical
T5 construct: Full-length AMPK intended for use in phosphatase and kinase assays was purified, mixed with GST-CaMKKβ; made in house; host or cells: Rosetta cells (E. coli); phosphorylated in vitro with GST-CaMKKβ, which was then removed on glutathione resin
T5 sequence (P54645 with tags, fused parts or gaps limits assumed): as the sequence (P54645 with tags, fused parts or gaps limits assumed) above
T5 sequence (P80386 whole entry partner): as the sequence (P80386 whole entry partner) above
T5 sequence (P80385 whole entry): as the sequence (P80385 whole entry) above
Procedure: Kinase assays. Assay conditions were adapted from published methods (17). The final assay buffer was comprised of 40 mM Hepes (pH 7.4) 5 mM MgCl2, 200 μM ATP, 75 mM NaCl, 0.01% Triton X-100, 1 mM DTT, and 0.45% DMSO (vehicle). Because some analogs had poor solubility at high concentrations, all analogs and controls were diluted in assay buffer and centrifuged (1 min, 5000 rpm, 4° C.) to remove insoluble matter. GST-ACC peptide and p-AMPK were thawed, diluted in assay buffer, and then added to the supernatant at final concentrations of 900 and 0.1 ng/μL, respectively. Kinase assays were assembled on ice; reactions were allowed to proceed for 30 minutes at room temperature. Reactions were stopped by the addition of loading buffer and 48 mM DTT followed promptly by freezing at −20° C.
(§6) Western analyses. Protein samples were boiled for 15 minutes in loading buffer and DTT prior to SDS-PAGE. Blots for protein-based assays were sequentially incubated with the following: 5% BSA in 1× TBS (1 hr, 22° C.), 1:1000 rabbit anti-human p-AMPK-α antibody or p-ACC antibody (2 hr, 22° C.), and 1:10,000 donkey anti-rabbit secondary antibody (1 hr, 22° C.). Blots for phosphatase assays were probed a second time using 1:100 mouse anti-human total AMPK antibody (overnight, 4° C.; from UNC Antibody Core Facility) followed by 1:10,000 donkey anti-mouse secondary antibody (1 hr, 22° C.). Blots for clarified cell lysates were sequentially probed for p-AMPK (1:500 dilution, overnight at 4° C. or 4 hours at 22° C.), total ACC (1:1000 dilution, overnight at 4° C. or 4 hours at 22° C.), and tubulin (1:10,000 dilution, 1 hr, 22° C.); a parallel set of blots were probed for p-ACC (1:500 dilution, overnight at 4° C. or 4 hours at 22° C.), total AMPK (1:1000 dilution, overnight at 4° C. or 4 hours at 22° C.), and tubulin (1:10,000 dilution, 1 hr, 22° C.). Because phosphorylated and total protein were imaged on separate membranes, the signals were normalized to the internal tubulin signal prior to calculating the ratio of phosphorylated to total protein. Scanning and imaging were completed according to published methods.

[5] = test system: p-ACC levels in HEK cells; assay: Cell-intact assay, p-ACC levels in HEK cells; assay type: cell-based, human; settings: for p-ACC levels (substrate phosphorylation), pre-conditioned HEK cells: serum starvation followed by 10% serum, 1 hour
Procedure: as §5
After incubating in the presence of drugs for one hour, cells were washed three times with ice-cold PBS and lysed according to published methods (Kazgan N, Williams T, Forsberg L J, Brenman J E. Identification of a nuclear export signal in the catalytic subunit of AMP-activated protein kinase. Molecular biology of the cell. 2010 Oct. 1; 21(19):3433-42. PubMed PMID: 20685962. Pubmed Central PMCID: 2947478). Lysates were centrifuged at 16,000 g (10 minutes, 4° C.). Clarified supernatant (30 μL) was then transferred to 10 μL 4X loading buffer and 2 μL 1 M DTT. Samples were immediately frozen at −20° C. The concentration of protein in diluted clarified supernatant was calculated using a DC protein assay kit (BioRad) prior to western analyses.
as §6

HEK cells = assay: Cell-intact assay, attachment of HEK cells to tissue culture plates; assay type: cell-based, human; settings: absence of serum
Procedure: as §5

pKd (full-length His-AMPK)	pIC50 [1]	pIC50 ([2]; MANT-ADP with no protein = 100% inhibition, read-out: IC50, inhibition of the increase in MANT-ADP fluorescence)	protection of p-AMPK from dephosphorylation [4]	dose response when repeated with an additional concentration at 1 μM (purified p-AMPK; high p-GST-ACC peptide at both 1 and 40 μM, data not shown)	substrate phosphorylation at higher doses (purified p-AMPK; higher doses)	inhibition of the protein-bound signal of MANT-ADP in the triplicate similarity screen ([2]; final concentration 45 μM)	pIC50 ([2]; Example 4, read-out: binding IC50)	detachment of cells from tissue culture plates (HEK cells)	Structure (SMILES)	displacement of MANT-ADP: full-length AMPK compared with regulatory fragment [2]	p-AMPK levels, pre-conditioned HEK cells [3]	activity of purified p-AMPK (phosphorylation of GST-ACC peptide), dose response (purified p-AMPK; compared to DMSO control)	p-ACC levels, serum-treated HEK cells ([5]; 10% serum)	p-ACC levels (substrate phosphorylation), pre-conditioned HEK cells [5]
4.89	6.40	6.52	–	–	–	–	–	–	Nc1ncnc2c1ncn2[C@@H]1O[C@H](COP(=O)(O)OP(=O)(O)O)[C@@H](O)[C@H]1O [ADP, adenosine diphosphate, reference compound]	same binding IC50; also recorded: same concentration	–	–	–	–
–	–	–	protected p-AMPK from dephosphorylation	complete U-shaped dose response	permitted substrate phosphorylation	reproducibly inhibited	> 5.30	caused many cells to detach	O=C1/C(=C/c2ccc(-c3ccc(Cl)c(Cl)c3)o2)SC(=S)N1CCS(=O)(=O)O [BAS 02250954, 2-[(5Z)-5-{[5-(3,4-Dichlorophenyl)furan-2-yl]methylidene}-4-oxo-2-sulfanylidene-1,3-thiazolidin-3-yl]ethane-1-sulfonic acid]	greater concentration	high levels of p-AMPK	significantly inhibited substrate phosphorylation at low doses; also recorded: inhibits substrate phosphorylation	decreased substrate phosphorylation	no change in substrate phosphorylation; also recorded: does not increase
–	–	–	–	–	–	–	–	–	N#Cc1c(O)c2c(-c3ccc(-c4ccccc4O)cc3)csc2[nH]c1=O [Example A-769662, reference compound]	–	increased	–	–	increased
